Series [1] deals with Escherichia coli 25922. The series can be described thus: microbe, parasite or virus in culture. From the text:
Synergy between peptide Shiva-10 (SEQ ID NO:4) and various antimicrobial agents was investigated against Escherichia coli 25922.
Synergy between tetracycline and various peptides was investigated against Escherichia coli 25922 MBC. […] When combined with the peptides, the concentration of tetracycline was held at 1.5 ppm.

For series [2], the system named is Staph. aureus 29213. The series can be described thus: microbe, parasite or virus in culture. To be noted: for MBC: Staphylococcus aureus, 29213, read-out: MBC, Without peptide; for MBC, With 5 μg/mL peptide: with 5 μg/mL peptide Shiva-10. From the text: This experiment determined the peptide MBC in the absence of the antimicrobial agent, or in the presence of the indicated concentration of antimicrobial agent

In series [3] the test system is Pseudomonas aeruginosa ATCC 9027. Description: Antimicrobial assay I, MIC by OD measurement. To be noted: 37° C. for 24 hours, absorbance 620 nm. It is filed as cell-based.
In series [4] the test system is Staphylococcus aureus ATCC 6538. Description: Antimicrobial assay I, MIC by OD measurement. It is filed as cell-based. As to conditions: 37° C. for 24 hours, absorbance 620 nm.
Series [5] concerns yeast (Saccharomyces cerevisiae). The series can be described thus: Antimicrobial assay I, yeast assay in RPMI 1640. It is filed as cell-based. As to conditions: RPMI 1640 media.
Series [6] has as its system S. aureus (MRSA). The series is classed as cell-based, Staphylococcus aureus. To be noted: mean of three; 16 to 20 hours at 35° C.
For series [7], the system named is S. epidermidis C621. It is filed as cell-based, Staphylococcus epidermidis. To be noted: mean of three; 16 to 20 hours at 35° C.
Series [8] has as its system S. pyogenes M76. The series can be described thus: Antimicrobial assays II, NCCLS broth microdilution MIC. The series is classed as cell-based, Streptococcus pyogenes. As to conditions: mean of three; 16 to 20 hours at 35° C.
Series [9] concerns S. pyogenes ATCC19615. Described as above. The series is classed as cell-based, Streptococcus pyogenes. To be noted: mean of three, in µg/mL.
Series [10] relates to S. pneumoniae C718. The series is described as above. It is filed as cell-based, Streptococcus pneumoniae. To be noted: mean of three.
Series [11] concerns P. acne ATCC 6919. The description is as above. The series is classed as cell-based, Propionibacterium acnes. As to conditions: mean of three, in µg/mL.
Series [12] relates to BMKC. The series can be described thus: Anti-cancer assay, MTT, LD50. It is filed as cell-based. To be noted: BMKC cloned melanoma line, 24 hours with peptide. From the text:
(§1) Numbers are LD50 values (μg/mL).

Series [13] deals with H1299. Description: Anti-cancer assay, MTT, LD50. As to conditions: 24 hours with peptide, lung large cell carcinoma. The series is classed as cell-based.
From the text: as §1

In series [14] the test system is HeLaS3. The series can be described thus: Anti-cancer assay, MTT, LD50. It is filed as cell-based. As to conditions: 24 hours with peptide, cervical carcinoma.
From the text: as §1

Series [15] relates to MCF7. The series can be described thus: Anti-cancer assay, MTT, LD50. It is filed as cell-based. As to conditions: MCF7 breast adenocarcinoma line, MTT, 24 hours with peptide.
From the text: as §1

Series [16] relates to PC3. The series can be described thus: Anti-cancer assay, MTT, LD50. It is filed as cell-based. As to conditions: 24 hours with peptide, prostate adenocarcinoma.
From the text: as §1

Series [17] relates to SW480. Description: Anti-cancer assay, MTT, LD50. It is filed as cell-based. As to conditions: SW480 colon adenocarcinoma line, 24 hours with peptide.
From the text: as §1

Series [18] is described as follows: in vitro. It is filed as cell-based, human. As to conditions: human, human red blood cells, pH 7, hemolytic assay, concentration at 50% hemolysis, 1 hour at 37° C.; read-out: LD50.
The subject of series [19] is P. aeruginosa H374. The series is classed as cell-based, Pseudomonas aeruginosa. As to conditions: for FIC Index: 0.5 or less = synergy. The method, boiled down:
(§2)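 Synergy against efflux-mutant strains: two-fold dilutions of nalidixic acid or chloramphenicol tested with peptide held at ¼ of its MIC.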

The subject of series [20] is P. aeruginosa H774. It is filed as cell-based, Pseudomonas aeruginosa. To be noted: P. aeruginosa H744; nalidixic acid + peptide at ¼ MIC; 0.5 or less = synergy. In a few lines: as §2
Series [21] concerns P. aeruginosa. The series is classed as cell-based, Pseudomonas aeruginosa. To be noted: P. aeruginosa H744; MIC of nalidixic acid with peptide at ¼ MIC. In a few lines:
as §2

The test system of series [22] is WI38. To be noted: MTT, 24 hours with peptide; normal fibroblast line.
The nature of series [23]: in vitro. To be noted: human, WI38 normal lung fibroblast cells, LD50 WI38, WI38 normal lung fibroblast line, MTT, 24 hours with peptide.
Setting [24] is: Escherichia coli, 25922, read-out: MBC, Without peptide.

Data on 7 compounds can be found in patent publication US20050209157A1, “Short bioactive peptides and methods for their use” (priority 2001, published 2005).

By CC50 is commonly meant the concentration that lowers cell viability or growth by half.

Values after ≈ are worked out from the molar mass of the structure shown. Like-named read-outs stand apart in the source and are kept apart here.

Regarding `CCN1CCN(C(=O)N[C@@H](C(=O)N[C@@H]2C(=O)N3C(C(=O)O)=C(CSc4nnnn4C)CS[C@H]23)c2ccc(O)cc2)C(=O)C1=O` [Cefoperazone], in series [1] (setting [24]), the MBC came out at 150 µg/mL. Moreover, the “MBC, With peptide” value in series [1] (with 15 μg/mL peptide Shiva-10) worked out at 2.5 µg/mL. In [2], the MBC is 10 µg/mL (≈ 15.5 µM) and the “MBC, With 5 μg/mL peptide” value stood at 2.5 µg/mL (≈ 3.87 µM).
In the case of `NC[C@H]1O[C@H](O[C@H]2[C@H](O)[C@@H](O[C@H]3O[C@H](CO)[C@@H](O)[C@H](N)[C@H]3O)[C@H](N)C[C@@H]2N)[C@H](N)C[C@@H]1O` [Tobramycin], in series [2], the MBC amounted to 25 µg/mL (≈ 53.5 µM) and the “MBC, With 5 μg/mL peptide” value turned out to be 10 µg/mL (≈ 21.4 µM).
Regarding `CN(C)[C@@H]1C(O)=C(C(N)=O)C(=O)[C@@]2(O)C(O)=C3C(=O)c4c(O)cccc4[C@@](C)(O)[C@H]3C[C@@H]12` [Tetracycline], the MBC in series [1] (Escherichia coli, 25922, read-out: MBC of tetracycline) was 10 µg/mL; in series [1] (setting [24]), 10 µg/mL; in series [2], 10 µg/mL (≈ 22.5 µM). For the same compound, the “MBC, With peptide” value in series [1] (with 5 μg/mL peptide Shiva-10) came out at 2.5 µg/mL. Besides, the “MBC, With 5 μg/mL peptide” value in series [2] worked out at 1 µg/mL (≈ 2.25 µM).
As to `CC1(C)S[C@@H]2[C@H](NC(=O)[C@H](C(=O)O)c3ccsc3)C(=O)N2[C@H]1C(=O)O` [Ticarcillin], the MBC in series [1] (setting [24]) was 100 µg/mL. Also, in series [1] (with 15 μg/mL peptide Shiva-10), the “MBC, With peptide” value was 50 µg/mL. Besides, in series [2], the MBC amounted to 25 µg/mL (≈ 65 µM) and the “MBC, With 5 μg/mL peptide” value was determined as 15 µg/mL (≈ 39 µM).
For the compound `CC(C)C[C@H](NC(=O)[C@H](C)NC(=O)[C@H](CC(C)C)NC(=O)[C@H](CCCCN)NC(=O)[C@H](C)NC(=O)[C@H](CC(C)C)NC(=O)[C@H](CCCCN)NC(=O)[C@H](CCCCN)NC(=O)[C@H](C)NC(=O)[C@H](CC(C)C)NC(=O)[C@H](CCCCN)NC(=O)[C@H](C)NC(=O)[C@H](CC(C)C)NC(=O)[C@H](CCCCN)NC(=O)[C@H](CCCCN)NC(=O)[C@H](C)NC(=O)[C@@H](N)Cc1ccccc1)C(N)=O` [P35], the “paerug9027 (MIC)” value in series [3] is 200 µg/mL. Further, the “staph6538 (MIC)” value in series [4] was found to be 5 µg/mL. Also, the “yeast (MIC or MFC)” value in series [5] stood at 25 µg/mL. This compound showed a S. aureus (MRSA) MIC in series [6] of 8 µg/mL. Also, the S. epidermidis C621 MIC in series [7] amounted to 4 µg/mL. Also, the S. pyogenes M76 MIC in series [8] was determined as 4 µg/mL. In series [9], the “S. pyogenes MIC” value was 16. Besides, the S. pneumoniae MIC in series [10] was 4 µg/mL. Also, in series [11], the “P. acne MIC” value turned out to be 4. In addition, the “LD50 BMKC” value in series [12] is 7 µg/mL. In addition, in [13], the “H1299 LD50” value came out at 16 µg/mL. In series [14], the “HeLaS3 LD50” value was 27 µg/mL. Also, the “LD50 MCF7” value in series [15] was 9 µg/mL. For the same compound, the “PC3 LD50” value in series [16] worked out at 5 µg/mL. In series [17], the “LD50 SW480” value came to 14 µg/mL. In addition, the HC50 at 1 h in series [18] came out at 200 µg/mL. The MBC of peptide came out at 20 µg/mL in [2] (in the presence of Cefoperazone ([…])), 32 µg/mL in series [2] (in the presence of Vancomycin (1 ppm)) and 50 µg/mL in series [2] (peptide alone). Moreover, in series [19] (MIC of chloramphenicol with peptide at ¼ MIC), the “MIC Cm-comb.” value was 16 µg/mL. Also, the “MIC Nal-comb.” value in [19] (MIC of nalidixic acid with peptide at ¼ MIC) is 10,000 μg/ml; in series [21], 624 µg/mL. Further, the “FIC Index” value is given as 1.25 in series [19] (chloramphenicol + peptide at ¼ MIC); 2.25 in series [19] (nalidixic acid + peptide at ¼ MIC, FIC=0.25+MIC comb/MIC alone); 1.25 in series [20]. In addition, the “WI38 LD50” value in series [22] was found to be 8 µg/mL. The compound also registered a CC50 at 24 h in series [23] of 8 µg/mL (≈ 4.31 µM).
On to `CC1(C)S[C@@H]2[C@H](NC(=O)[C@H](N)c3ccccc3)C(=O)N2[C@H]1C(=O)O` [Ampicillin], for which, in series [2], the MBC stood at 5 µg/mL (≈ 14.3 µM) and the “MBC, With 5 μg/mL peptide” value was determined as 2.5 µg/mL (≈ 7.15 µM).
For the compound `CC(C)C[C@H](NC(=O)[C@H](C)NC(=O)[C@H](CC(C)C)NC(=O)[C@H](C)NC(=O)[C@H](CC(C)C)NC(=O)[C@H](CCCCN)NC(=O)[C@H](C)NC(=O)[C@H](CC(C)C)NC(=O)[C@H](CCCCN)NC(=O)[C@H](CCCCN)NC(=O)[C@H](C)NC(=O)[C@H](CC(C)C)NC(=O)[C@H](CCCCN)NC(=O)[C@H](CCCCN)NC(=O)[C@H](CC(C)C)NC(=O)[C@H](CCCCN)NC(=O)[C@H](CCCCN)NC(=O)[C@H](C)NC(=O)[C@H](CC(C)C)NC(=O)[C@H](CCCCN)NC(=O)[C@H](CCCCN)NC(=O)[C@H](C)NC(=O)[C@@H](N)Cc1ccccc1)C(N)=O` [P11, reference compound], in series [18], the HC50 at 1 h came out at 76 µg/mL. In addition, the “MBC, Without peptide” value is 50 µg/mL in [1] (agent alone) and 200 µg/mL (≈ 78.9 µM) in [2] (agent alone).
